Measurements as given in the supplement of paper PMC11451515.

System: NOMO1
Assay: cell viability relative to DMSO control; higher = less cytotoxic
Conditions: 48 h
Summary of the method: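 Viability, reported as a per-plate percentage of DMSO wells with cell-free wells as background, came from CellTiter-Glo One luminescence. Reading took place after 48 h at 37°C. Before that, NOMO1 or SEM (500 cells/well) or P12-Ichikawa (1000 cells/well) leukemia cells, adapted for at least four passages in each medium, were seeded in 1536-well plates (5 μl) and pin-dosed with library compounds in DMSO, 47 μM to 0.79 nM over 11 threefold points.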

[1] = HPLM + 10% dialyzed FBS, 0.000781 µM
[2] = HPLM + 10% dialyzed FBS, 0.00234 µM
[3] = HPLM + 10% dialyzed FBS, 0.00702 µM
[4] = HPLM + 10% dialyzed FBS, 0.0211 µM
[5] = HPLM + 10% dialyzed FBS, 0.0632 µM
[6] = HPLM + 10% dialyzed FBS, 0.19 µM
[7] = HPLM + 10% dialyzed FBS, 0.569 µM
[8] = HPLM + 10% dialyzed FBS, 1.71 µM
[9] = HPLM + 10% dialyzed FBS, 5.12 µM
[10] = HPLM + 10% dialyzed FBS, 15.4 µM
[11] = HPLM + 10% dialyzed FBS, 46.1 µM
[12] = RPMI 5 mM glucose + 10% FBS, 0.000781 µM
[13] = RPMI 5 mM glucose + 10% FBS, 0.00234 µM
[14] = RPMI 5 mM glucose + 10% FBS, 0.00702 µM
[15] = RPMI 5 mM glucose + 10% FBS, 0.0211 µM
[16] = RPMI 5 mM glucose + 10% FBS, 0.0632 µM
[17] = RPMI 5 mM glucose + 10% FBS, 0.19 µM
[18] = RPMI 5 mM glucose + 10% FBS, 0.569 µM
[19] = RPMI 5 mM glucose + 10% FBS, 1.71 µM
[20] = RPMI 5 mM glucose + 10% FBS, 5.12 µM
[21] = RPMI 5 mM glucose + 10% FBS, 15.4 µM
[22] = RPMI 5 mM glucose + 10% FBS, 46.1 µM
[23] = RPMI 5 mM glucose + 10% dialyzed FBS, 0.000781 µM
[24] = RPMI 5 mM glucose + 10% dialyzed FBS, 0.00234 µM
[25] = RPMI 5 mM glucose + 10% dialyzed FBS, 0.00702 µM
[26] = RPMI 5 mM glucose + 10% dialyzed FBS, 0.0211 µM
[27] = RPMI 5 mM glucose + 10% dialyzed FBS, 0.0632 µM
[28] = RPMI 5 mM glucose + 10% dialyzed FBS, 0.19 µM
[29] = RPMI 5 mM glucose + 10% dialyzed FBS, 0.569 µM
[30] = RPMI 5 mM glucose + 10% dialyzed FBS, 1.71 µM
[31] = RPMI 5 mM glucose + 10% dialyzed FBS, 5.12 µM
[32] = RPMI 5 mM glucose + 10% dialyzed FBS, 15.4 µM
[33] = RPMI 5 mM glucose + 10% dialyzed FBS, 46.1 µM

Row | Structure (SMILES) | cell viability [1] | cell viability [2] | cell viability [3] | cell viability [4] | cell viability [5] | cell viability [6] | cell viability [7] | cell viability [8] | cell viability [9] | cell viability [10] | cell viability [11] | cell viability [12] | cell viability [13] | cell viability [14] | cell viability [15] | cell viability [16] | cell viability [17] | cell viability [18] | cell viability [19] | cell viability [20] | cell viability [21] | cell viability [22] | cell viability [23] | cell viability [24] | cell viability [25] | cell viability [26] | cell viability [27] | cell viability [28] | cell viability [29] | cell viability [30] | cell viability [31] | cell viability [32] | cell viability [33]
1 | NC/1=N/C(=O)N(/C=N1)[C@@H]2O[C@H](CO)[C@@H](O)[C@H]2O | 108% | 108% | 111% | 101% | 106% | 115% | 108% | 100% | 94.8% | 65.8% | 21.2% | 100% | 109% | 91.5% | 93.6% | 99.9% | 106% | 96.9% | 90.6% | 81.3% | 52.7% | 20.7% | 110% | 112% | 106% | 110% | 116% | 111% | 109% | 91.6% | 72.6% | 32.6% | 14.6%
2 | COc1cc(CNC(=O)CCCC/C=C/C(C)C)ccc1O | 111% | 116% | 113% | 123% | 114% | 112% | 71.5% | 77% | 79.1% | 60.9% | 47.2% | 101% | 99.6% | 95% | 115% | 104% | 114% | 90.6% | 45.9% | 36.6% | 41.1% | 36.4% | 102% | 97.8% | 103% | 98.5% | 106% | 101% | 99.5% | 55.3% | 52% | 50.4% | 59.7%
3 | NC(=O)Nc1cc(-c2cccc(F)c2)sc1C(=O)N[C@H]1CCCNC1 | 125% | 102% | 141% | 107% | 147% | 92.1% | 59.2% | 42% | 24.7% | 26.9% | 26.2% | – | – | – | – | – | – | – | – | – | – | – | 121% | 122% | 136% | 134% | 136% | 139% | 81.7% | 33.2% | 24.4% | 21.6% | 23.4%
4 | OC[C@H]1O[C@@H](Oc2cc(O)cc(/C=C/c3ccc(O)cc3)c2)[C@H](O)[C@@H](O)[C@@H]1O | 85.6% | 116% | 107% | 128% | 115% | 111% | 99.4% | 74.8% | 63.1% | 58.8% | 45% | 102% | 99.2% | 111% | 121% | 104% | 106% | 98.1% | 91.5% | 84.2% | 63.2% | 63.3% | 85.6% | 92.4% | 88.3% | 98.4% | 109% | 108% | 103% | 84.7% | 51.9% | 52.7% | 76.5%
5 | N#C/N=C(\NCCCCCCOc1ccc(Cl)cc1)Nc1ccncc1 | 49.3% | 47.6% | 19.9% | 15.5% | 12.6% | 11.9% | 9.75% | 9.76% | 9.75% | 8.47% | 6.05% | 61% | 41.9% | 22% | 19.2% | 15.7% | 9.97% | 11.4% | 8.82% | 9.25% | 8.91% | 6.02% | 81.6% | 58.1% | 26.1% | 21% | 12.5% | 12.2% | 9.8% | 8.26% | 7.27% | 6.87% | 5.38%
6 | N[S+](=O)([O-])OC[C@@H]1C[C@@H](n2ccc3c(N[C@H]4CCc5ccccc54)ncnc32)C[C@@H]1O | 103% | 118% | 114% | 111% | 110% | 107% | 70.8% | 26.6% | 16.6% | 14.3% | 18.7% | 96.2% | 110% | 92.4% | 113% | 118% | 92.6% | 57.7% | 12.4% | 10.8% | 8.04% | 8.01% | 111% | 97.4% | 104% | 104% | 121% | 103% | 59.8% | 26.7% | 18.5% | 13% | 10.8%
7 | C[C@](N)(Cc1ccc(O)c(O)c1)C(=O)O | 84.9% | 84.3% | 96.8% | 74.9% | 89.4% | 82% | 76.7% | 69.9% | 92.9% | 76.8% | 72.6% | 86.4% | 80.1% | 93.9% | 82% | 81.7% | 81% | 76.5% | 78.4% | 82.9% | 76.9% | 74.1% | 88.3% | 88.5% | 85% | 87.1% | 92.2% | 85.7% | 78.1% | 87.2% | 82.3% | 79% | 77.9%
8 | CCOC(=O)Nc1ccc(NCc2ccc(F)cc2)nc1N | 123% | 137% | 114% | 127% | 117% | 117% | 108% | 101% | 104% | 109% | 120% | 118% | 105% | 103% | 111% | 110% | 127% | 101% | 105% | 103% | 114% | 106% | 108% | 113% | 110% | 123% | 122% | 109% | 119% | 119% | 112% | 106% | 102%
